Laboratory results reported in patent US20160022760A1, “METHODS OF TREATING CELIAC DISEASE WITH LARAZOTIDE” (priority 2014, published 2016).
Where no end group is shown, it is not given here.

How the values were obtained:
[1] = test system: celiac disease; conditions: cited from earlier work
[2] = Phase IIb study: vital signs, BMI and body weight; assay type: in vivo, human
Experimental: Body weight was measured and BMI was calculated based upon screening height and weight at the timings specified in Table 2.
The Investigator or designee obtained vital signs including temperature, blood pressure (sitting), and pulse at screening and all study visits.
For continuous variables, changes from baseline to each time point were summarized with the number of nonmissing values, mean, standard deviation, median, and minimum and maximum values. For categorical variables, subject counts and percentages were provided. Results of ECGs were classified as normal; abnormal, not clinically significant, and abnormal, clinically significant, as specified on the ECG page of the eCRF. Summaries were presented by treatment group.

[3] = test system: anti-deamidated gliadin peptide (anti-DGP IgA and IgG); conditions: MITT
Description: (§1) Blood was collected for determination of serum anti-tTG (IgA and IgG) and anti-DGP (IgA and IgG) at the timings specified in Table 2.
(§2) Anti-tTG (IgA and IgG) and anti-DGP (IgA and IgG), and change from baseline (Week 0) to Visit 4 (Week 4), End of Treatment Visit 6 (Week 12), and End of Study Visit 7 (Week 16) were summarized descriptively. Week 0 served as baseline.

[4] = test system: anti-tissue transglutaminase (anti-tTG IgA and IgG); conditions: each treatment group, MITT
Description: as §1, §2

## GGVLVQPG (SEQ ID NO:1) [Larazotide acetate]
[1]; 0.25 mg to 8 mg TID and up to 36 mg in a single dose
  Safety profile in previous clinical studies, in words: acceptable safety profile
[1]; lower doses 0.25 mg and 1 mg versus 4 mg or 8 mg
  Efficacy of lower doses in previous studies, in words: more effective compared to placebo than higher doses of 4 mg or 8 mg
[2]; 0.5, 1 and 2 mg groups, Week 4, Week 8, end of treatment, end of follow-up, placebo −0.1 to −0.3
  Mean change from baseline in BMI (range): 0 to 0.2 kg/m^2
[2]; 0.5, 1 and 2 mg groups, placebo −0.2 to −0.8
  Mean change from baseline in body weight (range): -0.1 to 0.5 kg
[2]; systolic and diastolic blood pressure, pulse rate, body temperature
  Mean changes from baseline in vital sign variables versus placebo, in words: No clinically meaningful differences
[3]; any Larazotide acetate group
  Anti-DGP (IgA and IgG) antibody titers versus placebo, in words: no clinically meaningful post baseline differences
[3]; each treatment group
  Average anti-DGP antibody titers (IgA) over the study, in words: remained relatively unchanged
[4]
  Average anti-tTG antibody titers (IgA) over the study, in words: remained relatively unchanged
[4]; throughout the study
  Average anti-tTG antibody titers (IgA): < 10 units
